Values quoted from earlier work as cited in PMC2409936, “Phase I and pharmacokinetic study of XR11576, an oral topoisomerase I and II inhibitor, administered on days 1–5 of a 3-weekly cycle in patients with advanced solid tumours” (British Journal of Cancer, 2004).

System: patients
Settings: 1997, cited from earlier work; for diarrhoea, share of administered cycles: oral administration, ref Soepenberg et al, 2002, Natelson et al, 1996, Verschraegen et al, 1998, Creemers et al, Gerrits et al, Mani et al, De Jonge et al, 1999

Compound | diarrhoea, share of administered cycles | severe diarrhoea (prolonged oral administration (21 days), not controlled with loperamide, ref Creemers et al)
CC[C@@]1(O)C(=O)OCc2c1cc1n(c2=O)Cc2cc3c(N)cccc3nc2-1 [9-AC] | 24–54% | –
CC[C@@]1(O)C(=O)OCc2c1cc1n(c2=O)Cc2cc3c([N+](=O)[O-])cccc3nc2-1 [9-nitrocamptothecin] | 24–54% | –
CC[C@@]1(O)C(=O)OCc2c1cc1n(c2=O)Cc2cc3ccccc3nc2-1 [20-S-camptothecin] | 24–54% | –
CCc1c2c(nc3ccc(OC(=O)N4CCC(N5CCCCC5)CC4)cc13)-c1cc3c(c(=O)n1C2)COC(=O)[C@]3(O)CC [irinotecan] | 24–54% | –
CC[C@@]1(O)C(=O)OCc2c1cc1n(c2=O)Cc2cc3c(CN(C)C)c(O)ccc3nc2-1 [topotecan] | 24–54% | 22%
